This is an account of results in publication PMC12474180 (Toxins, 2025).

Like-named read-outs stand apart in the source and are kept apart here.

For series [1], the system named is MlrB. As to conditions: cited from earlier work.
In series [2] the test system is MlrC. As to conditions: Sphingomonas ACM-3962 and Sphingopyxis sp. C-1; cited from earlier work.
For series [3], the system named is MlrC. Put plainly: recombinant MlrC. As to conditions: cited from earlier work.
The nature of series [4]: Sphingopyxis sp. m6 (wild-type) cells in MSM. As to conditions: Sphingopyxis sp. m6, 30 °C, up to 6 h.
Series [5] has as its system MlrA. Put plainly: purified recombinant MBP-tagged MlrA (0.05 mg/L purified enzymes). As to conditions: Sphingopyxis sp. m6, 30 °C, up to 30 min.
Series [6] concerns MlrB. In words: purified recombinant MBP-tagged MlrB (0.05 mg/L purified enzymes). As to conditions: Sphingopyxis sp. m6, 30 °C, up to 6 h.
For series [7], the system named is MlrC. In words: purified recombinant MBP-tagged MlrC (0.05 mg/L purified enzymes). As to conditions: Sphingopyxis sp. m6, 30 °C, up to 6 h.
Series [8] concerns MlrA. As to conditions: cited from earlier work.
The nature of series [9]: knockout mutant m6-ΔmlrB cells in MSM. As to conditions: Sphingopyxis sp. m6, 30 °C, up to 6 h.
Series [10] is described as follows: knockout mutant m6-ΔmlrC cells in MSM. As to conditions: Sphingopyxis sp. m6, 30 °C, up to 6 h.
Series [11] can be described thus: knockout mutant m6-ΔmlrD cells in MSM. As to conditions: Sphingopyxis sp. m6, 30 °C, up to 6 h.
The test system of a further series is MlrA, MlrB, MlrC. Put plainly: Mlr enzymes of Sphingomonas sp. ACM-3962. As to conditions: cited from earlier work.
In series [12] the test system is MlrA.
For series [13], the system named is MlrB.
The test system of series [14] is MlrC.

As to Adda-Glu-Mdha-Ala-Leu-MeAsp-Arg, the fragment found entry in the series with MlrB [1] was “tetrapeptide (Adda-Glu-Mdha-Ala)”; in the series with MlrC [2] it was “Adda”; with MlrC [3] it was “hexapeptide compound”. The cleaved bond result in series [4] is “Ala-Leu”; with MlrB [6], “Ala-Leu”; with MlrC [7], “Adda-Glu”. The not cleaved result in the series with MlrA [5] is listed as “can’t degrade”.
Regarding Adda-Glu-Mdha-Ala, the fragment found result with MlrC [2] is recorded as “Adda”. Further, the cleaved bond result (in series [4]; in the series on MlrC [7]) was “Adda-Glu” in each case. Moreover, the not cleaved entry in the series with MlrA [5] and in the series with MlrB [6] was “can’t degrade” throughout.
In the case of cyclo-(Ala-Leu-MeAsp-Arg-Adda-Glu-Mdha), the fragment found entry is “linearized MC-LR (Adda-Glu-Mdha-Ala-Leu-MeAsp-Arg), first_seen” with MlrA [8]; “linearized MC-LR, within 1 h and tetrapeptide, minor and Adda” in series [9]; “linearized MC-LR, within 1 h and tetrapeptide and Adda” in series [10]; “linearized MC-LR, within 1 h and tetrapeptide and Adda” in [11]; “linearized MC-LR and tetrapeptide and Adda” in the series with MlrA, MlrB, MlrC. For the same compound, the cleaved bond result in series [4] is “Arg-Adda, first_seen”; in the series with MlrA [5], “Arg-Adda”. Further, the not cleaved entry with MlrB [6] and with MlrC [7] was “can’t degrade” each time.
Consider `COC(Cc1ccccc1)C(C)C=C(C)C=CC(N)C(C)C(=O)O` (stereo not shown) [Adda, 3-amino-9-methoxy-2,6,8-trimethyl-10-phenyl-deca-4,6-dienoic acid], for which, in the series on MlrA [12], the “Degrading ability of MlrA” value is recorded as “-”. Besides, the “Degrading ability of MlrB” value with MlrB [13] was “-”. The “Degrading ability of MlrC” value in the series with MlrC [14] was “-”. Also, the “degrading ability of the strain” value in the series with m6-ΔmlrA, in the series with m6-ΔmlrB, in the series with m6-ΔmlrC and with m6-ΔmlrD was “can all degrade” throughout.
